Experimental data taken from patent US11312712B2, “Azabenzimidazoles and their use as AMPA receptor modulators” (Janssen Pharmaceutica NV, priority 2015, dated 2022).

What follows are compounds tested against GluA1o-γ8 (GRIA1o-CACNG8 fusion construct) (Homo sapiens (Human), UniProt P42261+Q8WXS5) (assay: Calcium flux assay (FLIPR), inhibition of TARP γ8 dependent AMPA receptor activity). Conditions: GluA1o-γ8 (GRIA1o-CACNG8 fusion) in HEK293 cells, calcium flux after 15 μM glutamate.
Format: cell-based
Description: This assay was used to test compounds for their ability to inhibit TARP γ8 dependent AMPA receptor activity. The AMPA receptor is a non-selective cation channel activated by glutamate. Ionotropic glutamate receptors normally desensitize too rapidly to allow detectable calcium influx in a FLIPR assay (Strange et al. (2006). “Functional characterisation of homomeric ionotropic glutamate receptors GluR1-GluR6 in a fluorescence-based high throughput screening assay.” Comb Chem High Throughput Screen 9(2): 147-158). But, this desensitization is incomplete, and a substantial steady-state current remains in the sustained presence of glutamate (Cho et al. (2007). “Two families of TARP isoforms that have distinct effects on the kinetic properties of AMPA receptors and synaptic currents.” Neuron 55(6): 890-904).
An in vitro assay was used to determine the potency of test compounds as inhibitors of the glutamate response of the channel formed by GluA1o-γ8. To ensure a 1:1 stoichiometry of GluA1o and γ8 subunits in the expressed channel, a fusion of the cDNAs for GRIA1o and CACNG8 was used. Following Shi et al (2009) “The stoichiometry of AMPA receptors and TARPs varies by neuronal cell type.” Neuron 62(5): 633-640), the C-terminus of the cDNA for GRIA1o was fused to the N-terminus of the cDNA for γ8. The linker sequence was QQQQQQQQQQEFAT. Channels expressed with this construct appear to have similar properties to channels formed by co-expression of GRIA1o with an excess of CACNG8 (Shi et al. 2009). A clonal cell line in HEK293 cells stably expressing this construct, with a geneticin selection marker, was generated for use in this assay.
Cell expressing the GRIA1o-CACNG8 fusion construct were grown in a monolayer in 96- or 384-well microtiter plates. They were washed with assay buffer (135 mM NaCl, 4 mM KCl, 3 mM CaCl2, 1 mM MgCl2, 5 mM glucose, 10 mM HEPES, pH 7.4, 300 mOs) using a Biotek EL405 plate washer. The cells were then loaded with a calcium-sensitive dye (Calcium-5 or Calcium-6, Molecular Devices) and the test compounds at a range of concentrations. Calcium flux following the addition of 15 μM glutamate was monitored using a Molecular Devices FLIPR Tetra. The fluorescence in each well was normalized to the fluorescence of negative and positive control wells. The negative control wells had no added compounds, and the positive control wells had been incubated with 10 μM CP465022 (a non-subtype-selective AMPA receptor antagonist) (Lazzaro et al. (2002). “Functional characterization of CP-465,022, a selective, noncompetitive AMPA receptor antagonist.” Neuropharmacology 42(2): 143-153). The responses to glutamate as functions of the test compound concentrations were fitted to a four-parameter logistic function. The fitted parameter corresponding to the midpoint was taken to be the potency of inhibition of the compound. The data in Table 4 below illustrates the observed potentcy for the compounds described herein. pIC50 refers to the negative log of the IC50 in molar.

GluA1o-γ8 (GRIA1o-CACNG8 fusion construct), sequence (P42261 other isoform, or with tags, fused parts or gaps): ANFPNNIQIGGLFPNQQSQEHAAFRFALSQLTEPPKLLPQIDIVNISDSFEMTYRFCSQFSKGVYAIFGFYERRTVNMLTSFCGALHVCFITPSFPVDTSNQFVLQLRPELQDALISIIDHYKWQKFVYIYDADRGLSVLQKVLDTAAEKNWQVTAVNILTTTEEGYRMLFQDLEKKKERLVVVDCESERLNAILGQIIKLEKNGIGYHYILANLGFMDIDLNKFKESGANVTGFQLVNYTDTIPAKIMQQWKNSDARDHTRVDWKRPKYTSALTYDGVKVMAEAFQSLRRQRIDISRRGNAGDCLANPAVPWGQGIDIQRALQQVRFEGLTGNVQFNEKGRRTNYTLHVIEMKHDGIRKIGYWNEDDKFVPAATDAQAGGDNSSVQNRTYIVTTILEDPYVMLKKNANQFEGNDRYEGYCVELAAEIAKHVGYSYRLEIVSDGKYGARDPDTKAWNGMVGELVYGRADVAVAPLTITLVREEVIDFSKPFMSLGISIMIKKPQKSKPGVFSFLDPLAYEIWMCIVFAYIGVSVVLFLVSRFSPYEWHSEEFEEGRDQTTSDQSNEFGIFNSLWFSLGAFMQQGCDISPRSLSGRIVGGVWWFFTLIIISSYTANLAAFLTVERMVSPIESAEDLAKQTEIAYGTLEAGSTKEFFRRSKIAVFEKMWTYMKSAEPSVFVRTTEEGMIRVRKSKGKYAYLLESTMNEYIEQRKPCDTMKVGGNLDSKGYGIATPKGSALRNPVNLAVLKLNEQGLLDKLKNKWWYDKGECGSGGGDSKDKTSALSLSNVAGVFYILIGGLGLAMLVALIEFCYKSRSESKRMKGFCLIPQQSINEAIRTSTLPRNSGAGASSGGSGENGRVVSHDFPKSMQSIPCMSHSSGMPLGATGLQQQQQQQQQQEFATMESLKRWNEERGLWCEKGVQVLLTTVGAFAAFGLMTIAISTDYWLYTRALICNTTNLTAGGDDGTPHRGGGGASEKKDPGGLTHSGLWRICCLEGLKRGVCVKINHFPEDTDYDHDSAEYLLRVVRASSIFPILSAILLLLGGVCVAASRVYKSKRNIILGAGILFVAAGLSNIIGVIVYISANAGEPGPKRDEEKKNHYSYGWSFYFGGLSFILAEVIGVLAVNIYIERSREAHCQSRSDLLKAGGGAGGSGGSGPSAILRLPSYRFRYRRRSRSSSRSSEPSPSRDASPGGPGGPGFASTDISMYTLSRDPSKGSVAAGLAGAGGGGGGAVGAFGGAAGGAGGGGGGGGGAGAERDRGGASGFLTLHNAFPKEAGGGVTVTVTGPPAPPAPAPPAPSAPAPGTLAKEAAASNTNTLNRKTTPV

| SMILES | IC50 [nM] |
| --- | --- |
| FC(F)(F)c1ccc2nc(-c3ccccc3)n(-c3ccc4[nH]ccc4c3)c2n1 [Example 13, 3-(1H-Indol-5-yl)-2-phenyl-5-(trifluoromethyl)imidazo[4,5-b]pyridine] | 2 |
| O=c1[nH]c2ccc(-n3c(-c4ccccc4)nc4ccc(C(F)(F)F)nc43)cc2s1 [Example 14, 6-[2-Phenyl-5-(trifluoromethyl)imidazo[4,5-b]pyridin-3-yl]-3H-1,3-benzothiazol-2-one] | 0.158 |
| O=c1[nH]c2ccc(-n3c(-c4ccccc4)nc4ccc(F)nc43)cc2s1 [Example 15, 6-(5-Fluoro-2-phenyl-imidazo[4,5-b]pyridin-3-yl)-3H-1,3-benzothiazol-2-one] | 3.16 |
| O=c1[nH]c2ccc(-n3c(-c4ccc(F)cc4)nc4ccc(C(F)(F)F)nc43)cc2s1 [Example 16, 6-[2-(4-Fluorophenyl)-5-(trifluoromethyl)imidazo[4,5-b]pyridin-3-yl]-3H-1,3-benzothiazol-2-one] | 0.631 |
| Cc1ccc2nc(-c3ccccc3)n(-c3ccc4[nH]c(=O)sc4c3)c2n1 [Example 17, 6-(5-Methyl-2-phenyl-imidazo[4,5-b]pyridin-3-yl)-3H-1,3-benzothiazol-2-one] | 0.501 |
| COc1ccc2nc(-c3ccccc3)n(-c3ccc4[nH]c(=O)sc4c3)c2n1 [Example 18, 6-(5-Methoxy-2-phenyl-imidazo[4,5-b]pyridin-3-yl)-3H-1,3-benzothiazol-2-one] | 3.98 |
| CC(C)(C)c1nc2ccc(C(F)(F)F)nc2n1-c1ccc2[nH]c(=O)sc2c1 [Example 19, 6-[2-tert-Butyl-5-(trifluoromethyl)imidazo[4,5-b]pyridin-3-yl]-3H-1,3-benzothiazol-2-one] | 1.26 |
| O=c1[nH]c2ccc(-n3c(-c4ccc(F)cc4)nc4cccnc43)cc2s1 [Example 20, 6-[2-(4-Fluorophenyl)imidazo[4,5-b]pyridin-3-yl]-3H-1,3-benzothiazol-2-one] | 5.01 |
| O=c1[nH]c2ccc(-n3c(-c4ccc(F)cc4)nc4cccnc43)cc2[nH]1 [Example 21, 5-[2-(4-Fluorophenyl)imidazo[4,5-b]pyridin-3-yl]-1,3-dihydrobenzimidazol-2-one] | 10 |
| Fc1ccc(-c2nc3cccnc3n2-c2ccc3[nH]ncc3c2)cc1 [Example 22, 2-(4-Fluorophenyl)-3-(1H-indazol-5-yl)imidazo[4,5-b]pyridine] | 31.6 |
| O=C1Cc2cc(-n3c(-c4ccc(F)cc4)nc4cccnc43)ccc2N1 [Example 23, 5-[2-(4-Fluorophenyl)imidazo[4,5-b]pyridin-3-yl]indolin-2-one] | 25.1 |
| O=c1[nH]c2ccc(-n3c(-c4ccc(F)cc4)nc4cccnc43)cc2o1 [Example 24, 6-[2-(4-Fluorophenyl)imidazo[4,5-b]pyridin-3-yl]-3H-1,3-benzoxazol-2-one] | 316 |
| O=c1[nH]c2ccc(-n3c(-c4ccccc4)nc4cccnc43)cc2s1 [Example 25, 6-(2-Phenylimidazo[4,5-b]pyridin-3-yl)-3H-1,3-benzothiazol-2-one] | 10 |
| c1ccc(-c2nc3cccnc3n2-c2ccc3[nH]ccc3c2)cc1 [Example 26, 3-(1H-Indol-5-yl)-2-phenyl-imidazo[4,5-b]pyridine] | 501 |
| Cc1ccc2nc(-c3ccc(F)cc3)n(-c3ccc4[nH]c(=O)sc4c3)c2n1 [Example 27, 6-[2-(4-Fluorophenyl)-5-methyl-imidazo[4,5-b]pyridin-3-yl]-3H-1,3-benzothiazol-2-one] | 0.794 |
| O=c1[nH]c2ccc(-n3c(-c4ccc(F)nc4)nc4cccnc43)cc2s1 [Example 28, 6-[2-(6-Fluoro-3-pyridyl)imidazo[4,5-b]pyridin-3-yl]-3H-1,3-benzothiazol-2-one] | 251 |
| Cc1ccc2nc(-c3ccnc(F)c3)n(-c3ccc4[nH]c(=O)sc4c3)c2n1 [Example 29, 6-[2-(2-Fluoro-4-pyridyl)-5-methyl-imidazo[4,5-b]pyridin-3-yl]-3H-1,3-benzothiazol-2-one] | 2.51 |
